In US10781224B2, “Bis(oxymethyl)phosphinic acid and biogenic metal salts thereof as regulators of plant growth and development” (priority 2016, dated 2020):

Tests used:
[1] = tested on: winter wheat (Vershin variety); assay: Winter wheat seed treatment with BHMPA salts: germinating power (length and mass of roots and sprouts); assay type: in vivo
Summary of the method: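 Seeds (50 per Petri dish on two layers of filter paper) soaked 1 h in BHMPA or its Ca, Mg, Na, Co, Mn, Cu or Zn salts at 1·10^−6-1·10^−12%, with water controls. Germination energy read on day 4, germination on day 8 (wheat) or day 7 (rice, corn), as % means of four replicates. Germinating power taken as root and sprout length plus wet and dry mass per 100 seedlings.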

[2] = tested on: rice (Diamant variety); assay: Rice seed treatment with BHMPA salts: germination energy and germination rate; assay type: in vivo
Summary of the method: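 Corn, winter wheat and rice seeds (50 per dish, on filter paper) were soaked for 1 h in BHMPA or its metal salts at 1·10^−6-1·10^−12%, with water as control. Germination energy was read on day 4 and germination rate on day 8 for wheat and day 7 for rice and corn, following GOST 12038-84, as the mean of four replicates.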

[3] = comparative study, 1·10^−9% solution
[4] = rice seed treatment, solution 1 · 10^−9%
[5] = seed treatment, concentration 1 · 10^−6%
[6] = seed treatment, concentration 1 · 10^−7%
[7] = seed treatment, concentration 1 · 10^−8%
[8] = seed treatment, concentration 1 · 10^−9%
[9] = seed treatment, concentration 1 · 10^−10%
[10] = seed treatment, concentration 1 · 10^−11%
[11] = seed treatment, concentration 1 · 10^−12%

O.O.O=P([O-])(CO)CO.O=P([O-])(CO)CO.[Mn+2] [Mn-salt, Manganese BHMPA Salt]
Length, root ([1]; 1·10^−6% solution): 2.8 cm
Length, root, + % to control ([1]; 1·10^−6% solution): −7%
Length, sprout ([1]; 1·10^−6% solution): 3.4 cm
Length, sprout, + % to control ([1]; 1·10^−6% solution): −5.5%
Mass, dry, root ([1]; 1·10^−6% solution): 0.32 g/100 plantlings
Mass, dry, root, + % to control ([1]; 1·10^−6% solution): −2%
Mass, dry, sprout ([1]; 1·10^−6% solution): 0.44 g/100 plantlings
Mass, dry, sprout, + % to control ([1]; 1·10^−6% solution): −10%
Mass, wet, root ([1]; 1·10^−6% solution): 1.38 g/100 plantlings
Mass, wet, root, + % to control ([1]; 1·10^−6% solution): −9%
Mass, wet, sprout ([1]; 1·10^−6% solution): 3.37 g/100 plantlings
Mass, wet, sprout, + % to control ([1]; 1·10^−6% solution): −6%
germinating power results vs control ([1]; 1·10^−6% solution): lower than those of the control
Length, root ([1]; 1·10^−7% solution): 3.8 cm
Length, root, + % to control ([1]; 1·10^−7% solution): 27%
Length, sprout ([1]; 1·10^−7% solution): 4.8 cm
Length, sprout, + % to control ([1]; 1·10^−7% solution): 33%
Mass, dry, root ([1]; 1·10^−7% solution): 0.50 g/100 plantlings
Mass, dry, root, + % to control ([1]; 1·10^−7% solution): 35%
Mass, dry, sprout ([1]; 1·10^−7% solution): 0.58 g/100 plantlings
Mass, dry, sprout, + % to control ([1]; 1·10^−7% solution): 18%
Mass, wet, root ([1]; 1·10^−7% solution): 1.74 g/100 plantlings
Mass, wet, root, + % to control ([1]; 1·10^−7% solution): 14.5%
Mass, wet, sprout ([1]; 1·10^−7% solution): 3.84 g/100 plantlings
Mass, wet, sprout, + % to control ([1]; 1·10^−7% solution): 7%
Length, root ([1]; 1·10^−8% solution): 4.4 cm
Length, root, + % to control ([1]; 1·10^−8% solution): 47%
Length, sprout ([1]; 1·10^−8% solution): 6.0 cm
Length, sprout, + % to control ([1]; 1·10^−8% solution): 67%
Mass, dry, root ([1]; 1·10^−8% solution): 0.53 g/100 plantlings
Mass, dry, root, + % to control ([1]; 1·10^−8% solution): 43%
Mass, dry, sprout ([1]; 1·10^−8% solution): 0.67 g/100 plantlings
Mass, dry, sprout, + % to control ([1]; 1·10^−8% solution): 37%
Mass, wet, root ([1]; 1·10^−8% solution): 2.09 g/100 plantlings
Mass, wet, root, + % to control ([1]; 1·10^−8% solution): 37.5%
Mass, wet, sprout ([1]; 1·10^−8% solution): 4.52 g/100 plantlings
Mass, wet, sprout, + % to control ([1]; 1·10^−8% solution): 25.5%
Length, root ([1]; 1·10^−9% solution): 4.6 cm
Length, root, + % to control ([1]; 1·10^−9% solution): 53%
Length, sprout ([1]; 1·10^−9% solution): 7.9 cm
Length, sprout, + % to control ([1]; 1·10^−9% solution): 119%
Mass, dry, root ([1]; 1·10^−9% solution): 0.62 g/100 plantlings
Mass, dry, root, + % to control ([1]; 1·10^−9% solution): 67.5%
Mass, dry, sprout ([1]; 1·10^−9% solution): 0.84 g/100 plantlings
Mass, dry, sprout, + % to control ([1]; 1·10^−9% solution): 71%
Mass, wet, root ([1]; 1·10^−9% solution): 3.00 g/100 plantlings
Mass, wet, root, + % to control ([1]; 1·10^−9% solution): 97%
Mass, wet, sprout ([1]; 1·10^−9% solution): 5.09 g/100 plantlings
Mass, wet, sprout, + % to control ([1]; 1·10^−9% solution): 41%
Length, root ([1]; 1·10^−10% solution): 4.5 cm
Length, root, + % to control ([1]; 1·10^−10% solution): 50%
Length, sprout ([1]; 1·10^−10% solution): 7.1 cm
Length, sprout, + % to control ([1]; 1·10^−10% solution): 97%
Mass, dry, root ([1]; 1·10^−10% solution): 0.57 g/100 plantlings
Mass, dry, root, + % to control ([1]; 1·10^−10% solution): 54%
Mass, dry, sprout ([1]; 1·10^−10% solution): 0.80 g/100 plantlings
Mass, dry, sprout, + % to control ([1]; 1·10^−10% solution): 63%
Mass, wet, root ([1]; 1·10^−10% solution): 2.16 g/100 plantlings
Mass, wet, root, + % to control ([1]; 1·10^−10% solution): 142%
Mass, wet, sprout ([1]; 1·10^−10% solution): 4.60 g/100 plantlings
Mass, wet, sprout, + % to control ([1]; 1·10^−10% solution): 28%
Length, root ([1]; 1·10^−11% solution): 4.4 cm
Length, root, + % to control ([1]; 1·10^−11% solution): 47%
Length, sprout ([1]; 1·10^−11% solution): 6.1 cm
Length, sprout, + % to control ([1]; 1·10^−11% solution): 69%
Mass, dry, root ([1]; 1·10^−11% solution): 0.52 g/100 plantlings
Mass, dry, root, + % to control ([1]; 1·10^−11% solution): 40.5%
Mass, dry, sprout ([1]; 1·10^−11% solution): 0.75 g/100 plantlings
Mass, dry, sprout, + % to control ([1]; 1·10^−11% solution): 53%
Mass, wet, root ([1]; 1·10^−11% solution): 1.90 g/100 plantlings
Mass, wet, root, + % to control ([1]; 1·10^−11% solution): 34%
Mass, wet, sprout ([1]; 1·10^−11% solution): 4.00 g/100 plantlings
Mass, wet, sprout, + % to control ([1]; 1·10^−11% solution): 11%
Length, root ([1]; 1·10^−12% solution): 3.6 cm
Length, root, + % to control ([1]; 1·10^−12% solution): 20%
Length, sprout ([1]; 1·10^−12% solution): 5.2 cm
Length, sprout, + % to control ([1]; 1·10^−12% solution): 44%
Mass, dry, root ([1]; 1·10^−12% solution): 0.40 g/100 plantlings
Mass, dry, root, + % to control ([1]; 1·10^−12% solution): 8%
Mass, dry, sprout ([1]; 1·10^−12% solution): 0.69 g/100 plantlings
Mass, dry, sprout, + % to control ([1]; 1·10^−12% solution): 31%
Mass, wet, root ([1]; 1·10^−12% solution): 1.52 g/100 plantlings
Mass, wet, root, + % to control ([1]; 1·10^−12% solution): 0%
Mass, wet, sprout ([1]; 1·10^−12% solution): 3.48 g/100 plantlings
Mass, wet, sprout, + % to control ([1]; 1·10^−12% solution): −3%
Length, root [1, 3]: 9.8 cm
Length, root, + % to control [1, 3]: 13%
Length, sprout [1, 3]: 6.7 cm
Length, sprout, + % to control [1, 3]: 8%
Mass, dry, root [1, 3]: 0.66 g/100 plantlings
Mass, dry, root, + % to control [1, 3]: 6%
Mass, dry, sprout [1, 3]: 0.55 g/100 plantlings
Mass, dry, sprout, + % to control [1, 3]: 8%
Mass, wet, root [1, 3]: 5.69 g/100 plantlings
Mass, wet, root, + % to control [1, 3]: 57%
Mass, wet, sprout [1, 3]: 4.97 g/100 plantlings
Mass, wet, sprout, + % to control [1, 3]: 25%
Germination energy, % [2, 4]: 86.7%
Germination rate, % [2, 4]: 93.0%
Germination energy ([2]; rice, 1·10^−9% solution): 85.3%
Germination rate ([2]; rice, 1·10^−9% solution): 91.7%
Germination energy [2, 5]: 77.0%
Germination rate [2, 5]: 82.7%
Germination energy [2, 6]: 79.3%
Germination rate [2, 6]: 85.0%
Germination energy [2, 7]: 82.7%
Germination rate [2, 7]: 86.7%
Germination energy [2, 8]: 85.3%
Germination rate [2, 8]: 91.7%
Germination energy [2, 9]: 83.3%
Germination rate [2, 9]: 88.3%
Germination energy [2, 10]: 81.0%
Germination rate [2, 10]: 86.0%
Germination energy [2, 11]: 78.0%
Germination rate [2, 11]: 83.0%
